Key:
Type in all cases: physicochemical
[1] = Stability of nBTPT melt-mixed in urea granules during storage (HPLC nBTPT content)
Method: For pilot scale experiments applying nBTPT in urea, nBTPT, as powder or as liquid formulations, was mixed in urea in the following way: nBTPT was added to urea melt, with and/or without the presence of an alkaline stabilizer and subsequently, this mixture was granulated in a fluidized bed granulator.
nBTPT in urea granules, with and/or without the presence of an alkaline stabilizer, were produced in the urea pilot plant in Sluiskil (Yara International ASA). This pilot plant has a batch capacity—after sieving—of about 50 kg of on-spec product. It basically consists of a stirred urea preparation vessel with an active volume of about 150 litres and a fluidized bed granulator of the UFT-type, equipped with a spraying nozzle of the spiral-type or HFT-type (EP 1701798 B1, 2005, Yara International ASA).
The samples were stored under several conditions, dependent on the type of samples:
(§1) Closed plastic container at room temperature (20° C.)
Open to air at 20° C. with a relative humidity of 80%
For some samples, an accelerated stability test was done storing these samples at elevated temperatures:
40° C. closed plastic container
(§2) 50° C. closed plastic container
(§3) 70° C. closed plastic container
(§4) HPLC analysis of nBTPT is done as described in the procedure CEN 15688-2007.
In the first experiment, 500 ppm nBTPT powder was added into urea melt, with and/or without the presence of an alkaline stabilizer, and in a next step this melt composition was converted into urea granules in a fluidized bed granulator. Subsequently, the granules were stored for 98 days at 40° C. in closed plastic containers and the decomposition of nBTPT was followed.
In a second experiment, the effect of other alkaline stabilizers such as CaO and CaCO3 was shown in comparison with NaOH. 500 ppm nBTPT powder was added into urea melt, containing an alkaline stabilizer, and in a next step, this melt composition was converted into urea granules in a fluidized bed granulator. Subsequently, the granules were stored for 109 days at 50° C. in closed plastic containers and the decomposition of nBTPT was followed.
On top of that, the granules were also stored for 1564 days (more than 4 years!) at room temperature (20° C.) in closed plastic containers and the decomposition of nBTPT was followed. […] With the addition of 1% CaO or CaCO3 a recovery of nBTPT higher than 40% was found after a long storage period of more than 4 years at room temperature.
In a third experiment, 500 ppm nBTPT powder was added into a urea melt, with and/or without the presence of 0.1% B as borax, and in a next step this melt composition was converted into urea granules in a fluidized bed granulator. Subsequently, the granules were stored for 57 days at 20° C./80% R.H. in open plastic containers and the decomposition of nBTPT was followed.
In a fourth experiment, 600 ppm nBTPT powder was added into a urea melt, with and/or without the presence of an alkaline stabilizer, and in a next step this melt composition was converted into urea granules in a fluidized bed granulator. Subsequently, the granules were stored for 15 days at 70° C. in closed plastic containers and the decomposition of nBTPT was followed.

[2] = Stability of nBTPT applied on moisturized urea granules during storage (HPLC nBTPT content); conditions: vs no stabilizer, closed plastic containers, 70° C., 15 days (FIG. 6)
Method: For lab scale experiments for applying nBTPT on urea, nBTPT, as powder or as liquid formulations, was applied onto urea by adding 1.2 kg of urea to a lab scale drum. In a next step, the nBTPT material, with and/or without the presence of an alkaline stabilizer, was slowly added. A residence time of 10 minutes was applied and the rotating speed of the drum was consequently the same in each experiment. Larger scale experiments with amounts up to 40 kg of fertilizer material were performed in a concrete mixer.
as §3, §4
600 ppm nBTPT powder was mixed with and/or without the presence of an alkaline stabilizer and subsequently added on urea granules, which were moisturized from 0.20% H2O to 0.60% H2O. This moisturization was done to create a higher moisture level of the urea granules to simulate moisture take up during storage in market conditions.
Subsequently, the urea granules were stored for 15 days at 70° C. in closed plastic containers and the decomposition of nBTPT was followed.

[3] = Stability of nBTPT in solution with added alkaline compound (HPLC nBTPT content); conditions: closed plastic containers
From the text: Lab scale experiments with nBTPT in solution: • An aqueous solution of nBTPT was made by dissolving 3 g nBTPT powder in 1 L water. In a next step an alkaline compound could be added. • A solution of 17.5% nBTPT in PG was made by dissolving step by step 17.5 g nBTPT powder in 82.5 g PG. In a next step, an alkaline compound could be added. • The commercial liquid nBTPT formulation Agrotain® Ultra was mixed with and/or without the presence of an alkaline stabilizer
as §1, §2, §4
In a first experiment, a solution of 17.5% nBTPT in PG was made and in a next step an alkaline compound was added. Subsequently, the solutions were stored in closed plastic containers for 5 days at room temperature (20° C.) and subsequently 7 days at 50° C. and the decomposition of nBTPT was followed.
In a second experiment, an alkaline compound was added to Agrotain® Ultra. Subsequently, the nBTPT solutions were stored in closed plastic containers for 5 days at room temperature (20° C.) and the decomposition of nBTPT was followed.
In a third experiment, an aqueous solution of 3.0 g nBTPT in 1 L water was made and in a next step an alkaline compound was added. Subsequently, the aqueous solutions were stored in closed plastic containers for 5 days at room temperature (20° C.) and the decomposition of nBTPT was followed.

With `CCCCNP(N)(N)=S` [nBTPT, N-(n-butyl) thiophosphoric triamide] the “stability of nBTPT in urea” value ([1]; 500 ppm nBTPT powder in urea + 1% CaCO3, compared with urea + 500 ppm NaOH, closed plastic containers, 50° C., 109 days (FIG. 2)) was “even higher stability”, the “stability of nBTPT in urea” value ([1]; 500 ppm nBTPT powder in urea + 1% CaCO3, compared with urea + 500 ppm NaOH, closed plastic containers, room temperature (20° C.), 1564 days (FIG. 3)) was “even higher stability” and the “stability of nBTPT in urea” value ([1]; 500 ppm nBTPT powder in urea + 1% CaO, compared with urea + 500 ppm NaOH, closed plastic containers, 50° C., 109 days (FIG. 2)) was “even higher stability”. For the same molecule, the “stability of nBTPT in urea” value ([1]; 500 ppm nBTPT powder in urea + 1% CaO, compared with urea + 500 ppm NaOH, closed plastic containers, room temperature (20° C.), 1564 days (FIG. 3)) was “even higher stability”, the “effect on the stability of nBTPT in urea granules during storage” value (from here on “effect … in urea granules during storage”) ([1]; 500 ppm nBTPT powder in urea + NaOH (200, 500, 1000 ppm) vs no NaOH, closed plastic containers, 40° C., 98 days, stability increases with NaOH dosage (FIG. 1)) was “positive effect” and the “effect … in urea granules during storage” value ([1]; 600 ppm nBTPT powder in urea + 1% CaCO3 vs no stabilizer, closed plastic containers, 70° C., 15 days (FIG. 5)) was “big positive effect”. The “effect … in urea granules during storage” value ([1]; 600 ppm nBTPT powder in urea + 1% CaO vs no stabilizer, closed plastic containers, 70° C., 15 days (FIG. 5)) was “big positive effect”, the “stability of the urease inhibitor in the composition according to the invention” value ([1]; bagged conditions without the presence of a head space (exclusion of moisture and atmospheric gasses)) was “further increased” and the “effect … in urea granules during storage” value ([1]; nBTPT powder in urea + 0.1% B as borax vs no borax, open plastic containers, 20° C./80% R.H., 57 days (FIG. 4)) was “big positive effect”. For the same molecule, the “effect on the stability of nBTPT on urea granules during storage” value ([2]; [600 ppm nBTPT powder + 2600 ppm MgO] on urea moisturized from 0.20% to 0.60% H2O) was “positive effect”, the “effect on the stability of nBTPT on urea granules during storage” value ([2]; [600 ppm nBTPT powder + 6000 ppm CaCO3] on urea moisturized from 0.20% to 0.60% H2O) was “positive effect” and the “effect on the stability of nBTPT in solution” value (“effect … in solution” below) ([3]; 17.5% nBTPT in propylene glycol (PG) + 5% CaO vs none, 5 days at 20° C. then 7 days at 50° C. (FIG. 7)) was “negative effect”. For the same molecule, the “effect … in solution” value ([3]; 17.5% nBTPT in propylene glycol (PG) + 5% NaOH vs none, 5 days at 20° C. then 7 days at 50° C. (FIG. 7)) was “negative effect”, the “effect … in solution” value ([3]; aqueous solution 3 g nBTPT/L water + 1% CaO vs none, 5 days at 20° C. (FIG. 9)) was “negative effect” and the “effect … in solution” value ([3]; aqueous solution 3 g nBTPT/L water + 1% Na2CO3 vs none, 5 days at 20° C. (FIG. 9)) was “negative effect”. The “effect … in solution” value ([3]; aqueous solution 3 g nBTPT/L water + 1% NaHCO3 vs none, 5 days at 20° C. (FIG. 9)) was “negative effect” and the “effect … in solution” value ([3]; aqueous solution 3 g nBTPT/L water + 1% NaOH vs none, 5 days at 20° C. (FIG. 9)) was “negative effect”.
